{"source": "patent US11957783B2", "about": "“Topical immunosensitizers to treat viral and fungal infections” (Squarex, LLC, priority 2018, dated 2024)", "key": {"[1]": {"test_system": "blood cells (B-Cells, T-Cells, helper/cytotoxic)", "assay": "Blood cell counts of subjects", "assay_type": "in vivo, human", "conditions": "for Absolute Count CD19 (B-Cells), group average / Helper/Cytotoxic Ratio, group average / Percentage CD3 (T-Cells), group average / Percentage CD19 (B-Cells), group average / T-cell to B-cell ratio, group average: n = 12", "protocol": "(§1) After a screening visit at which blood was drawn to test for IgG antibody against HSV-1 and subjects were interviewed for inclusion/exclusion criteria, selected subjects returned for blood draws on day 1. After the blood draw on day 1, subjects in group A only were dosed with SADBE. A petrolatum donut was applied with a cotton swab to form about a 1 cm diameter donut on skin on the inner aspect of the upper arm. Then a separate cotton swab was dipped in a 2% SADBE solution (w/v) in DMSO, and the swab was then used to apply about 10-20 mg of solution over about a 1 cm diameter circle within the petrolatum donut. Immediately after application, the application site was covered with TEGADERM. Subjects were advised to remove the TEGADERM and rinse and wipe the spot three hours later. The group A subjects then returned for blood draws on days 15 and 57 and were queried about adverse events on those dates.\n(§2) At this study visit where blood was drawn it was tested for blood cell counts, various cytokine levels, and anti-HSV-1 IgG quantitative levels.\nCertain blood cell count parameters were measured in the study. Differences vs. group A day 1 that are statistically significant are highlighted in bold underline."}, "[2]": {"test_system": "Interleukin 2 Receptor (CD25)", "assay": "Plasma level of Interleukin 2 Receptor (CD25)", "assay_type": "in vivo, human", "conditions": "for Interleukin 2 Receptor (CD25) in plasma, number of subjects with undetectable levels / Interleukin 2 Receptor (CD25) in plasma, group average: n = 12; for Interleukin 2 Receptor (CD25) in plasma, number of subjects with undetectable levels: lower limit of detection 9.19 pg/ml; for Interleukin 2 Receptor (CD25) in plasma, group average: undetectable counted as 9.19 pg/ml", "protocol": "as §1, §2\nAll subjects had detectable IL-2 and the large majority had detectable IL-2 receptor.\nFor IL2R the detection limit was 9.19 pg/ml and the number of subjects who measured undetectable are listed. If a subject's IL2R was undetectable, the value of 9.19 pg/ml was used for that subject in detecting the average of the group. No subjects had undetectable IL2."}}}
{"molecule": "CCCCOc1c(OCCCC)c(=O)c1=O", "note": "[SADBE, 3,4-Dibutoxy-3-cyclobutene-1,2-dione]", "values": [{"measurement": "Absolute Count CD19 (B-Cells), Sample/A1", "setting": "[1]; A15 / group A day 1", "result": 0.88}, {"measurement": "Helper/Cytotoxic Ratio, Sample/A1", "setting": "[1]; A15 / group A day 1", "result": 0.68}, {"measurement": "Percentage CD3 (T-Cells), Sample/A1", "setting": "[1]; A15 / group A day 1", "result": 1.02}, {"measurement": "Percentage CD19 (B-Cells), Sample/A1", "setting": "[1]; A15 / group A day 1", "result": 0.83}, {"measurement": "T-cell to B-cell ratio, Sample/A1", "setting": "[1]; A15 / group A day 1", "result": 1.35}, {"measurement": "Absolute Count CD19 (B-Cells), Sample minus A1", "setting": "[1]; A15 minus group A day 1", "result": "−22.63", "unit": "cells/mm^3"}, {"measurement": "Helper/Cytotoxic Ratio, Sample minus A1", "setting": "[1]; A15 minus group A day 1", "result": "−1.67"}, {"measurement": "Percentage CD3 (T-Cells), Sample minus A1", "setting": "[1]; A15 minus group A day 1", "result": 1.42, "unit": "%"}, {"measurement": "Percentage CD19 (B-Cells), Sample minus A1", "setting": "[1]; A15 minus group A day 1", "result": "−2.08", "unit": "%"}, {"measurement": "T-cell to B-cell ratio, Sample minus A1", "setting": "[1]; A15 minus group A day 1", "result": 2.41}, {"measurement": "Absolute Count CD19 (B-Cells), Sample/A1", "setting": "[1]; A57 / group A day 1", "result": 0.99}, {"measurement": "Helper/Cytotoxic Ratio, Sample/A1", "setting": "[1]; A57 / group A day 1", "result": 0.83}, {"measurement": "Percentage CD3 (T-Cells), Sample/A1", "setting": "[1]; A57 / group A day 1", "result": 1.03}, {"measurement": "Percentage CD19 (B-Cells), Sample/A1", "setting": "[1]; A57 / group A day 1", "result": 0.95}, {"measurement": "T-cell to B-cell ratio, Sample/A1", "setting": "[1]; A57 / group A day 1", "result": 1.01}, {"measurement": "Absolute Count CD19 (B-Cells), Sample minus A1", "setting": "[1]; A57 minus group A day 1", "result": "−1.85", "unit": "cells/mm^3"}, {"measurement": "Helper/Cytotoxic Ratio, Sample minus A1", "setting": "[1]; A57 minus group A day 1", "result": "−0.90"}, {"measurement": "Percentage CD3 (T-Cells), Sample minus A1", "setting": "[1]; A57 minus group A day 1", "result": 2.58, "unit": "%"}, {"measurement": "Percentage CD19 (B-Cells), Sample minus A1", "setting": "[1]; A57 minus group A day 1", "result": "−0.58", "unit": "%"}, {"measurement": "T-cell to B-cell ratio, Sample minus A1", "setting": "[1]; A57 minus group A day 1", "result": 0.69}, {"measurement": "Absolute Count CD19 (B-Cells), group average", "setting": "[1]; group A day 15 (A15)", "result": 171.74, "unit": "cells/mm^3"}, {"measurement": "Helper/Cytotoxic Ratio, group average", "setting": "[1]; group A day 15 (A15)", "result": 3.58}, {"measurement": "Percentage CD3 (T-Cells), group average", "setting": "[1]; group A day 15 (A15)", "result": 77.50, "unit": "%"}, {"measurement": "Percentage CD19 (B-Cells), group average", "setting": "[1]; group A day 15 (A15)", "result": 10.17, "unit": "%"}, {"measurement": "T-cell to B-cell ratio, group average", "setting": "[1]; group A day 15 (A15)", "result": 9.22}, {"measurement": "Absolute Count CD19 (B-Cells), group average", "setting": "[1]; group A day 57 (A57)", "result": 192.52, "unit": "cells/mm^3"}, {"measurement": "Helper/Cytotoxic Ratio, group average", "setting": "[1]; group A day 57 (A57)", "result": 4.35}, {"measurement": "Percentage CD3 (T-Cells), group average", "setting": "[1]; group A day 57 (A57)", "result": 78.67, "unit": "%"}, {"measurement": "Percentage CD19 (B-Cells), group average", "setting": "[1]; group A day 57 (A57)", "result": 11.67, "unit": "%"}, {"measurement": "T-cell to B-cell ratio, group average", "setting": "[1]; group A day 57 (A57)", "result": 7.50}, {"measurement": "Interleukin 2 Receptor (CD25) in plasma, Sample/A1", "setting": "[2]; A15 / group A day 1", "result": 1.23}, {"measurement": "Interleukin 2 Receptor (CD25) in plasma, Sample minus A1", "setting": "[2]; A15 minus group A day 1", "result": 167.04, "unit": "pg/mL"}, {"measurement": "Interleukin 2 Receptor (CD25) in plasma, Sample/A1", "setting": "[2]; A57 / group A day 1", "result": 0.96}, {"measurement": "Interleukin 2 Receptor (CD25) in plasma, Sample minus A1", "setting": "[2]; A57 minus group A day 1", "result": -26.24, "unit": "pg/mL"}, {"measurement": "Interleukin 2 Receptor (CD25) in plasma, number of subjects with undetectable levels", "setting": "[2]; group A day 15 (A15)", "result": 1}, {"measurement": "Interleukin 2 Receptor (CD25) in plasma, group average", "setting": "[2]; group A day 15 (A15)", "result": 899.81, "unit": "pg/mL"}, {"measurement": "Interleukin 2 Receptor (CD25) in plasma, number of subjects with undetectable levels", "setting": "[2]; group A day 57 (A57)", "result": 0}, {"measurement": "Interleukin 2 Receptor (CD25) in plasma, group average", "setting": "[2]; group A day 57 (A57)", "result": 706.52, "unit": "pg/mL"}]}
